{"source": "patent US9283235B2", "about": "“Intermittent lowering of cortisol as treatment of clinical conditions associated with abnormal concentrations of cortisol in animals” (Stegram Pharmaceuticals Limited, priority 2001, dated 2016)", "key": {"canine PDH": {"system": "canine PDH", "conditions": "of 10 dogs studied; cited from earlier work"}, "[1]": {"system": "dogs with hyperadrenocorticism (HAC)", "test": "Prospective study of trilostane in dogs with spontaneous hyperadrenocorticism (HAC): clinical signs and survival", "assay_type": "in vivo, dog", "conditions": "given to 4 dogs for three to four days before enrolment", "experimental": "Animals were entered into a prospective study and all animals required clinical and laboratory signs of hyperadrenocorticism as well as a final diagnosis of this disease. Data collected from each case included a clinical-historicy and physical examination, full blood count (CBC), serum biochemical profile, urinalysis and abdominal ultrasound. An ACTH-stimulation test was performed in all dogs. […] Dogs that had been treated for HAC other medication needed to be off these drugs for at least 10 days. Dogs with renal or hepatic insufficiency and dogs that received steroids were not included in the study.\nDogs with pituitary dependant hyperadrenocorticism or adrenal tumour which was unresectable or the owners were unwilling to have surgery performed, respectively, were treated with trilostane. The initial dose for dogs[…] was 30 mg once daily, dogs between 5 and 15 kg received 60 mg once daily and dogs>15 kg received 120 mg once daily. Dosages were adjusted based on clinical signs, blood biochemical parameters and an ACTH stimulation test.\nFollow-up re-examinations took place after 10 days, 4 weeks, 3 mouths, 6 months and then every 6 months or within 4 weeks of adjusting the dosage. At these points, owners were carefully questioned about their perception of the dogs general well being, dissolution of clinical signs and potential side effects and a physical examination was performed. A full biochemical profile and an ACTH stimulation test were carried out. Further tests such as urinanalysis, urine culture, thoracic radiographs, etc. were done if deemed necessary. If the clinical sips of hyperadrenocorticism (polyuria/polydipsia, polyphagia, exercise intolerance, etc.) were still present and if the post-ACTH cortisol concentration remained above 220 nmol/l, trilostane was given twice daily at the same dosage."}}}
{"smiles": "C#CCN(C)[C@H](C)Cc1ccccc1", "note": "[L-Deprenyl]", "values": [{"measurement": "Dogs with improvement of clinical signs", "setting": "canine PDH", "value": 2, "unit": "dogs"}]}
{"smiles": "Clc1ccc(C(c2ccccc2Cl)C(Cl)Cl)cc1", "note": "(centres unmarked) [Lysodren]", "values": [{"measurement": "Clinical effect", "setting": "[1]", "value": "did not show any clinical effect"}]}
